Holding throughout (assay type): functional
In one assay the test system is Enterococcus faecium. The experiment in a line: Antimicrobial activity against daptomycin-resistant Enterococcus faecium ATCC 6569 incubated anaerobically at 37 degC for 48 hrs by agar dilution method. As to conditions: ATCC 6569, 48 h. In general terms: In agar dilution the substance is mixed into plates at graded concentrations.
For a further assay, the system named is Enterococcus faecalis. Kind of assay: Antimicrobial activity against daptomycin-resistant Enterococcus faecalis ATCC 49452 incubated anaerobically at 37 degC for 48 hrs by agar dilution method. As to conditions: ATCC 49452, 48 h.
A further assay relates to Staphylococcus aureus. The experiment in a line: Antimicrobial activity against daptomycin-susceptible Staphylococcus aureus ATCC 29213 incubated anaerobically at 37 degC for 48 hrs by agar dilution method. As to conditions: ATCC 29213, 48 h.
Another assay concerns Clostridioides difficile. Kind of assay: Antimicrobial activity against daptomycin-resistant Clostridium difficile NAP1 incubated anaerobically at 37 degC for 48 hrs by agar dilution method. As to conditions: NAP1, 48 h.

≈ marks a conversion by molar mass, not a printed value. Where only a bound is given, the exact number is not on record here.

One may read the MIC as the lowest concentration found to suppress growth.

For `CCCCCCOc1ccc(-c2csc(C(=O)N[C@@H](Cc3c[nH]c4ccccc34)C(=O)N[C@@H](CC(N)=O)C(=O)N[C@@H](CC(=O)O)C(=O)N[C@@H]3C(=O)NCC(=O)N[C@@H](CCCN)C(=O)NC(CC(=O)O)C(=O)N[C@H](C)C(=O)N[C@@H](CC(=O)O)C(=O)NCC(=O)N[C@H](CO)C(=O)N[C@@H]([C@@H](C)CC(=O)O)C(=O)N[C@@H](CC(=O)c4ccccc4N)C(=O)O[C@@H]3C)c2)cc1` (single isomer, unassigned), the MIC in the assay on Enterococcus faecium was found to be 2 µg/mL (≈ 1.14 µM); in the assay with Enterococcus faecalis it was 8 µg/mL (≈ 4.56 µM); against Staphylococcus aureus, 0.5 µg/mL (≈ 0.285 µM); in the assay with Clostridioides difficile, 4 µg/mL (≈ 2.28 µM).
For the molecule `C[C@H]1NC(=O)C(CC(=O)O)NC(=O)[C@H](CCCN)NC(=O)CNC(=O)[C@@H](NC(=O)[C@H](CC(=O)O)NC(=O)[C@H](CC(N)=O)NC(=O)[C@H](Cc2c[nH]c3ccccc23)NC(=O)CCCCCCc2ccccc2)[C@@H](C)OC(=O)[C@H](CC(=O)c2ccccc2N)NC(=O)[C@H]([C@@H](C)CC(=O)O)NC(=O)[C@@H](CO)NC(=O)CNC(=O)[C@H](CC(=O)O)NC1=O` (single isomer, unassigned), the MIC was over 32 µg/mL against Enterococcus faecium, over 32 µg/mL with Enterococcus faecalis, 16 µg/mL (≈ 9.67 µM) against Staphylococcus aureus and 8 µg/mL (≈ 4.83 µM) against Clostridioides difficile.
`CCCCCCc1ccc(C(=O)N[C@@H](Cc2c[nH]c3ccccc23)C(=O)N[C@@H](CC(N)=O)C(=O)N[C@@H](CC(=O)O)C(=O)N[C@@H]2C(=O)NCC(=O)N[C@@H](CCCN)C(=O)N[C@H](CC(=O)O)C(=O)N[C@H](C)C(=O)N[C@@H](CC(=O)O)C(=O)NCC(=O)N[C@H](CO)C(=O)N[C@@H]([C@@H](C)CC(=O)O)C(=O)N[C@@H](CC(=O)c3ccccc3N)C(=O)O[C@@H]2C)cc1`: the MIC against Enterococcus faecium was 32 µg/mL (≈ 19.3 µM); in the assay with Enterococcus faecalis, over 32 µg/mL; with Staphylococcus aureus, 1 µg/mL (≈ 0.604 µM); in the assay on Clostridioides difficile, 4 µg/mL (≈ 2.42 µM).
As for `CCCCCCOc1ccc(-c2ccc(C(=O)N[C@@H](Cc3c[nH]c4ccccc34)C(=O)N[C@@H](CC(N)=O)C(=O)N[C@@H](CC(=O)O)C(=O)N[C@@H]3C(=O)NCC(=O)N[C@@H](CCCN)C(=O)N[C@H](CC(=O)O)C(=O)N[C@H](C)C(=O)N[C@@H](CC(=O)O)C(=O)NCC(=O)N[C@H](CO)C(=O)N[C@@H]([C@@H](C)CC(=O)O)C(=O)N[C@@H](CC(=O)c4ccccc4N)C(=O)O[C@@H]3C)cc2)cc1`, the MIC with Enterococcus faecium amounted to 1 µg/mL (≈ 0.572 µM); against Enterococcus faecalis, 2 µg/mL (≈ 1.14 µM); against Staphylococcus aureus, 0.5 µg/mL (≈ 0.286 µM); against Clostridioides difficile it was 2 µg/mL (≈ 1.14 µM).
Turning to `C[C@H]1NC(=O)C(CC(=O)O)NC(=O)[C@H](CCCN)NC(=O)CNC(=O)[C@@H](NC(=O)[C@H](CC(=O)O)NC(=O)[C@H](CC(N)=O)NC(=O)[C@H](Cc2c[nH]c3ccccc23)NC(=O)CCCCCc2ccccc2)[C@@H](C)OC(=O)[C@H](CC(=O)c2ccccc2N)NC(=O)[C@H]([C@@H](C)CC(=O)O)NC(=O)[C@@H](CO)NC(=O)CNC(=O)[C@H](CC(=O)O)NC1=O` (single isomer, unassigned), the minimum inhibitory concentration (MIC) against Enterococcus faecium is over 32 µg/mL; against Enterococcus faecalis, over 32 µg/mL; against Staphylococcus aureus, 16 µg/mL (≈ 9.75 µM); in the assay on Clostridioides difficile, 16 µg/mL (≈ 9.75 µM).
For `C[C@H]1NC(=O)[C@@H](CC(=O)O)NC(=O)[C@H](CCCN)NC(=O)CNC(=O)[C@@H](NC(=O)[C@H](CC(=O)O)NC(=O)[C@H](CC(N)=O)NC(=O)[C@H](Cc2c[nH]c3ccccc23)NC(=O)C2CCCCCCCCCCC2)[C@@H](C)OC(=O)[C@H](CC(=O)c2ccccc2N)NC(=O)[C@H]([C@@H](C)CC(=O)O)NC(=O)[C@@H](CO)NC(=O)CNC(=O)[C@H](CC(=O)O)NC1=O`, the MIC against Enterococcus faecium was 32 µg/mL (≈ 19.3 µM); in the assay with Enterococcus faecalis, over 32 µg/mL; with Staphylococcus aureus, 1 µg/mL (≈ 0.602 µM); in the assay on Clostridioides difficile it was 4 µg/mL (≈ 2.41 µM).
Regarding `CCCCc1ccc(/C=C(\C)C(=O)N[C@@H](Cc2c[nH]c3ccccc23)C(=O)N[C@@H](CC(N)=O)C(=O)N[C@@H](CC(=O)O)C(=O)N[C@@H]2C(=O)NCC(=O)N[C@@H](CCCN)C(=O)NC(CC(=O)O)C(=O)N[C@H](C)C(=O)N[C@@H](CC(=O)O)C(=O)NCC(=O)N[C@H](CO)C(=O)N[C@@H]([C@@H](C)CC(=O)O)C(=O)N[C@@H](CC(=O)c3ccccc3N)C(=O)O[C@@H]2C)cc1` (single isomer, unassigned), the MIC in the assay with Enterococcus faecium was 32 µg/mL (≈ 19.2 µM); against Enterococcus faecalis, over 32 µg/mL; in the assay on Staphylococcus aureus, 1 µg/mL (≈ 0.6 µM); in the assay on Clostridioides difficile, 2 µg/mL (≈ 1.2 µM).
For `CCCCCCSc1ccc(-c2csc(C(=O)N[C@@H](Cc3c[nH]c4ccccc34)C(=O)N[C@@H](CC(N)=O)C(=O)N[C@@H](CC(=O)O)C(=O)N[C@@H]3C(=O)NCC(=O)N[C@@H](CCCN)C(=O)N[C@H](CC(=O)O)C(=O)N[C@H](C)C(=O)N[C@@H](CC(=O)O)C(=O)NCC(=O)N[C@H](CO)C(=O)N[C@@H]([C@@H](C)CC(=O)O)C(=O)N[C@@H](CC(=O)c4ccccc4N)C(=O)O[C@@H]3C)c2)cc1`, in that order: 16 µg/mL (≈ 9.05 µM), over 32 µg/mL, 8 µg/mL (≈ 4.52 µM) and 8 µg/mL (≈ 4.52 µM).
For `CCCCCCCOc1ccc(-c2ccc(C(=O)N[C@@H](Cc3c[nH]c4ccccc34)C(=O)N[C@@H](CC(N)=O)C(=O)N[C@@H](CC(=O)O)C(=O)N[C@@H]3C(=O)NCC(=O)N[C@@H](CCCN)C(=O)N[C@H](CC(=O)O)C(=O)N[C@H](C)C(=O)N[C@@H](CC(=O)O)C(=O)NCC(=O)N[C@H](CO)C(=O)N[C@@H]([C@@H](C)CC(=O)O)C(=O)N[C@@H](CC(=O)c4ccccc4N)C(=O)O[C@@H]3C)cc2)cc1` the same measures were 1 µg/mL (≈ 0.568 µM), 4 µg/mL (≈ 2.27 µM), 0.25 µg/mL (≈ 0.142 µM) and 2 µg/mL (≈ 1.14 µM).
With `C[C@H]1NC(=O)[C@@H](CC(=O)O)NC(=O)[C@H](CCCN)NC(=O)CNC(=O)[C@@H](NC(=O)[C@H](CC(=O)O)NC(=O)[C@H](CC(N)=O)NC(=O)[C@H](Cc2c[nH]c3ccccc23)NC(=O)c2ccc(-c3ccc(Cl)cc3)cc2)[C@@H](C)OC(=O)[C@H](CC(=O)c2ccccc2N)NC(=O)[C@H]([C@@H](C)CC(=O)O)NC(=O)[C@@H](CO)NC(=O)CNC(=O)[C@H](CC(=O)O)NC1=O`, the MIC with Enterococcus faecium is over 32 µg/mL; with Enterococcus faecalis, over 32 µg/mL; in the assay with Staphylococcus aureus, 4 µg/mL (≈ 2.38 µM); against Clostridioides difficile, 16 µg/mL (≈ 9.52 µM).
With `CC(C)CCCCCCCCCCC(=O)N[C@@H](Cc1c[nH]c2ccccc12)C(=O)N[C@@H](CC(N)=O)C(=O)N[C@@H](CC(=O)O)C(=O)N[C@@H]1C(=O)NCC(=O)N[C@@H](CCCN)C(=O)NC(CC(=O)O)C(=O)N[C@H](C)C(=O)N[C@@H](CC(=O)O)C(=O)NCC(=O)N[C@H](CO)C(=O)N[C@@H]([C@@H](C)CC(=O)O)C(=O)N[C@@H](CC(=O)c2ccccc2N)C(=O)O[C@@H]1C` (single isomer, unassigned), the MIC in the assay on Enterococcus faecium was 4 µg/mL (≈ 2.39 µM); in the assay on Enterococcus faecalis, 16 µg/mL (≈ 9.54 µM); with Staphylococcus aureus, 0.125 µg/mL (≈ 0.0745 µM); against Clostridioides difficile, 1 µg/mL (≈ 0.596 µM).
As to `CCCCCCCCOc1ccc(-c2ccc(C(=O)N[C@@H](Cc3c[nH]c4ccccc34)C(=O)N[C@@H](CC(N)=O)C(=O)N[C@@H](CC(=O)O)C(=O)N[C@@H]3C(=O)NCC(=O)N[C@@H](CCCN)C(=O)N[C@H](CC(=O)O)C(=O)N[C@H](C)C(=O)N[C@@H](CC(=O)O)C(=O)NCC(=O)N[C@H](CO)C(=O)N[C@@H]([C@@H](C)CC(=O)O)C(=O)N[C@@H](CC(=O)c4ccccc4N)C(=O)O[C@@H]3C)cc2)cc1`, the MIC in the assay with Enterococcus faecium stood at 4 µg/mL (≈ 2.25 µM); in the assay on Enterococcus faecalis it was 16 µg/mL (≈ 9.01 µM); in the assay with Staphylococcus aureus, 0.125 µg/mL (≈ 0.0704 µM); in the assay on Clostridioides difficile, 1 µg/mL (≈ 0.563 µM).
For `CCCCCOc1ccc(/C=C/C(=O)N[C@@H](Cc2c[nH]c3ccccc23)C(=O)N[C@@H](CC(N)=O)C(=O)N[C@@H](CC(=O)O)C(=O)N[C@@H]2C(=O)NCC(=O)N[C@@H](CCCN)C(=O)NC(CC(=O)O)C(=O)N[C@H](C)C(=O)N[C@@H](CC(=O)O)C(=O)NCC(=O)N[C@H](CO)C(=O)N[C@@H]([C@@H](C)CC(=O)O)C(=O)N[C@@H](CC(=O)c3ccccc3N)C(=O)O[C@@H]2C)cc1` (single isomer, unassigned), in that order: over 32 µg/mL, over 32 µg/mL, 4 µg/mL (≈ 2.38 µM) and 4 µg/mL (≈ 2.38 µM).
On to `C[C@H]1NC(=O)C(CC(=O)O)NC(=O)[C@H](CCCN)NC(=O)CNC(=O)[C@@H](NC(=O)[C@H](CC(=O)O)NC(=O)[C@H](CC(N)=O)NC(=O)[C@H](Cc2c[nH]c3ccccc23)NC(=O)CCCCCCC2CCCCC2)[C@@H](C)OC(=O)[C@H](CC(=O)c2ccccc2N)NC(=O)[C@H]([C@@H](C)CC(=O)O)NC(=O)[C@@H](CO)NC(=O)CNC(=O)[C@H](CC(=O)O)NC1=O` (single isomer, unassigned), for which the MIC amounted to 8 µg/mL (≈ 4.82 µM) in the assay with Enterococcus faecium, 16 µg/mL (≈ 9.63 µM) against Enterococcus faecalis, 0.5 µg/mL (≈ 0.301 µM) in the assay on Staphylococcus aureus and 1 µg/mL (≈ 0.602 µM) against Clostridioides difficile.
As for `CCCCCCCCCCCCCCC(=O)N[C@@H](Cc1c[nH]c2ccccc12)C(=O)N[C@@H](CC(N)=O)C(=O)N[C@@H](CC(=O)O)C(=O)N[C@@H]1C(=O)NCC(=O)N[C@@H](CCCN)C(=O)NC(CC(=O)O)C(=O)N[C@H](C)C(=O)N[C@@H](CC(=O)O)C(=O)NCC(=O)N[C@H](CO)C(=O)N[C@@H]([C@@H](C)CC(=O)O)C(=O)N[C@@H](CC(=O)c2ccccc2N)C(=O)O[C@@H]1C` (single isomer, unassigned), the MIC is 4 µg/mL (≈ 2.37 µM) against Enterococcus faecium, 4 µg/mL (≈ 2.37 µM) against Enterococcus faecalis, 1 µg/mL (≈ 0.591 µM) against Staphylococcus aureus and 16 µg/mL (≈ 9.46 µM) in the assay on Clostridioides difficile.
Consider `CCCCCCCCCCCCC(=O)N[C@@H](Cc1c[nH]c2ccccc12)C(=O)N[C@@H](CC(N)=O)C(=O)N[C@@H](CC(=O)O)C(=O)N[C@@H]1C(=O)NCC(=O)N[C@@H](CCCN)C(=O)NC(CC(=O)O)C(=O)N[C@H](C)C(=O)N[C@@H](CC(=O)O)C(=O)NCC(=O)N[C@H](CO)C(=O)N[C@@H]([C@@H](C)CC(=O)O)C(=O)N[C@@H](CC(=O)c2ccccc2N)C(=O)O[C@@H]1C` (single isomer, unassigned), for which the MIC against Enterococcus faecium worked out at 8 µg/mL (≈ 4.81 µM); against Enterococcus faecalis, 8 µg/mL (≈ 4.81 µM); in the assay on Staphylococcus aureus it was 0.5 µg/mL (≈ 0.301 µM); against Clostridioides difficile, 8 µg/mL (≈ 4.81 µM).

(Values after ChEMBL document CHEMBL3576778, “Structure-Activity Relationship Studies of a Series of Semisynthetic Lipopeptides Leading to the Discovery of Surotomycin, a Novel Cyclic Lipopeptide Being Developed for the Treatment of Clostridium difficile-Associated Diarrhea” (J Med Chem, 2015).)
